{
  "source": "patent US12570602B2",
  "about": "“Selective serotonin receptor modulators and methods of making and using the same” (Park City Bio, LLC, priority 2024, dated 2026)",
  "key": {"5-HT2C receptor": {"target": "T1, 5-HT2C receptor (Homo sapiens, UniProt P28335)", "T1 construct": "expressed in transfected cells; host or cells: HEK293T", "T1 sequence (P28335 33-458)": "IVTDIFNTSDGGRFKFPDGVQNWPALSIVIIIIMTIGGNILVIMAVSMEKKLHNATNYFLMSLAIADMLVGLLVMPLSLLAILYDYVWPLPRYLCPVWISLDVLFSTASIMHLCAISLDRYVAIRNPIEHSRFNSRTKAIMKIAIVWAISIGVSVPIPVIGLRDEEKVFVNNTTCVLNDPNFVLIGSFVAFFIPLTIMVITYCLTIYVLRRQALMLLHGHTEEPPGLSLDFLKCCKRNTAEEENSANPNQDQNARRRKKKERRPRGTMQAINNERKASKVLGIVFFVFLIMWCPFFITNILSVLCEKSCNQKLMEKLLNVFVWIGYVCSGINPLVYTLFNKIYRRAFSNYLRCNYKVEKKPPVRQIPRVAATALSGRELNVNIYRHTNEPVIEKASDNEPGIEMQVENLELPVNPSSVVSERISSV", "experiment": "Gq activation via Gq/γ1 dissociation BRET, 5-HT2C", "assay_type": "cell-based", "settings": "primary signaling for 5-HT2C via Gq-coupled mechanism compared to B-arrestin", "source_text": "(§1) To measure 5-HT2 receptor-mediated Gq activation via Gq/y1 dissociation as measured by Bioluminescence Resonance Energy Transfer (BRET) (McCorvy J D, Wacker D, Wang S, Agegnehu B, Liu J, Lansu K, Tribo A R, Olsen R H J, Che T, Jin J, Roth B L. Structural determinants of 5-HT2B receptor activation and biased agonism. Nat Struct Mol Biol. 2018; 25(9): 787-96), HEK293T cells were sub-cultured in Dulbecco's Modified Eagle Medium (DMEM) supplemented with 10% dialyzed fetal bovine serum (FBS) and were co-transfected in a 1:1:1:1 ratio with Rluc8-fused human Gaq (Gaq-Rluc8), a GFP2-fused to the C-terminus of human Gy1 (Gy1-GFP2), human GI31, and 5-HT2 receptor using TransiT-2020. After at least 18-24 hours, transfected cells were plated in poly-lysine coated 96-well white clear bottom cell culture plates in DMEM containing 1% dialyzed FBS at a density of 25,000-40,000 cells in 200 μL per well and incubated overnight. The following day, medium was decanted, and cells were washed with 60 μL of drug buffer (1×HBSS, 20 mM HEPES, pH 7.4), then 60 μL of drug buffer was added per well. Cells were pre-incubated at in a humidified atmosphere at 37° C. before receiving drug stimulation. […] Substrate addition occurred 15 minutes before reading and utilized 10 μL of the Rluc substrate coelenterazine 400a for Gq dissociation BRET^2 (Prolume/Nanolight, 5 μM final concentration). Plates were read for luminescence at 400 nm and fluorescent GFP2 emission at 510 nm at 1 second per well using a Mithras LB940 multimode microplate reader (e.g. one provided by Berthold). The BRET ratios of fluorescence/luminescence were calculated per well and were plotted as a function of drug concentration using Graphpad Prism 8 (Graphpad Software Inc., San Diego, CA). Data were normalized to % 5-HT stimulation and analyzed using nonlinear regression “log(agonist) vs. response” to yield Emax and EC50 parameter estimates. […]"}, "5-HT2A receptor": {"target": "T2, 5-HT2A receptor (Homo sapiens, UniProt P28223)", "T2 construct": "expressed in transfected cells; host or cells: HEK293T", "T2 sequence (P28223 whole entry)": "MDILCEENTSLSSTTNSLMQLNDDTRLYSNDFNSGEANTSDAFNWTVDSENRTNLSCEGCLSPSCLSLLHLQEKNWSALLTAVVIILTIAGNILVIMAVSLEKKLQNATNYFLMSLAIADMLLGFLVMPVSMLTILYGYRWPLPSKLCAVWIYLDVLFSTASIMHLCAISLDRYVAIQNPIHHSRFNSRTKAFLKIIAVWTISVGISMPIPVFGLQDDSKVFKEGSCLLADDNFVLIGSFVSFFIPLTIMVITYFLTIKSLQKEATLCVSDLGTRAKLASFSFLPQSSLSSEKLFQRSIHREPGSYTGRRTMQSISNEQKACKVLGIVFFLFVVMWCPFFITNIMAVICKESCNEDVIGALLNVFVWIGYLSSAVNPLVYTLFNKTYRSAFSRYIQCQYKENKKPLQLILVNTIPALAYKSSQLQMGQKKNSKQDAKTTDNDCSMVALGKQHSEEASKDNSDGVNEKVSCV", "experiment": "Gq activation via Gq/γ1 dissociation BRET, 5-HT2A", "assay_type": "cell-based", "settings": "hallucinogenic or non-hallucinogenic plastogenic effect predicted from level of 5-HT2A agonist efficacy", "source_text": "as §1"}},
  "data": [
    {"smiles": "CNC[C@H]1C[C@@H]1c1cc(F)ccc1OC", "values": [
      {"measurement": "5-HT2C Gq signaling bias?", "setting": "5-HT2C receptor", "value": "Yes"},
      {"measurement": "Hall or N-Hall?", "setting": "5-HT2A receptor", "value": "N-Hall"}
    ]},
    {"smiles": "CNCC1CC1c1cc(F)ccc1SC", "note": "(stereo not drawn)", "values": [
      {"measurement": "5-HT2C Gq signaling bias?", "setting": "5-HT2C receptor", "value": "Yes"},
      {"measurement": "Hall or N-Hall?", "setting": "5-HT2A receptor", "value": "N-Hall"}
    ]},
    {"smiles": "CSc1ccc(F)cc1C1CC1CN(C)C", "note": "(stereo not drawn)", "values": [
      {"measurement": "5-HT2C Gq signaling bias?", "setting": "5-HT2C receptor", "value": "Yes"},
      {"measurement": "Hall or N-Hall?", "setting": "5-HT2A receptor", "value": "N-Hall"}
    ]}
  ]
}
